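Compound exposure: 48 hours, 5 concentrations, 96-well plates. Here, GI50 denotes the concentration required for 50% inhibition of growth. The concentration for full growth arrest is given as TGI.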
Assays:
Experiment in all cases: growth of human tumour cells (NCI), 48 h
UACC-257 melanoma = test system: UACC-257 melanoma
SNB-19 CNS = test system: SNB-19 CNS
SF-295 CNS = test system: SF-295 CNS
HOP-92 NSCLC = test system: HOP-92 NSCLC
M14 melanoma = test system: M14 melanoma
SW-620 colon = test system: SW-620 colon
CAKI-1 renal = test system: CAKI-1 renal
SK-MEL-2 melanoma = test system: SK-MEL-2 melanoma
DU-145 prostate = test system: DU-145 prostate
NCI-H23 lung = test system: NCI-H23 lung
786-0 renal = test system: 786-0 renal
SK-MEL-28 melanoma = test system: SK-MEL-28 melanoma
KM12 colon = test system: KM12 colon
SN12C renal = test system: SN12C renal
COLO 205 colon = test system: COLO 205 colon
UO-31 renal = test system: UO-31 renal
IGROV1 ovarian = test system: IGROV1 ovarian
PC-3 prostate = test system: PC-3 prostate
OVCAR-3 ovarian = test system: OVCAR-3 ovarian
SF-539 CNS = test system: SF-539 CNS
SNB-75 CNS = test system: SNB-75 CNS
RXF 393 renal = test system: RXF 393 renal
SF-268 CNS = test system: SF-268 CNS
CCRF-CEM leukemia = test system: CCRF-CEM leukemia
ACHN renal = test system: ACHN renal
BT-549 breast = test system: BT-549 breast
UACC-62 melanoma = test system: UACC-62 melanoma
HS 578T breast = test system: HS 578T breast
HL-60(TB) leukemia = test system: HL-60(TB) leukemia

## CCN1C(=O)N(c2ccccc2)C2NC(=S)N(/N=C/C=C/c3ccccc3OC)C21 (configuration not stated)
UACC-257 melanoma
  GI50: 3.44 µM
  TGI: > 88.5 µM
SNB-19 CNS
  GI50: 133 nM
  TGI: > 52.9 µM
SF-295 CNS
  GI50: 74.9 nM
  TGI: 25.7 µM
HOP-92 NSCLC
  GI50: 2150 nM
  TGI: > 85 µM
M14 melanoma
  GI50: 94.6 nM
SW-620 colon
  GI50: 125 nM
  TGI: > 100 µM
CAKI-1 renal
  GI50: 70.4 nM
  TGI: > 60.9 µM
SK-MEL-2 melanoma
  GI50: 166 nM
  TGI: > 76.2 µM
DU-145 prostate
  GI50: 115 nM
  TGI: > 34.4 µM
NCI-H23 lung
  GI50: 174 nM
  TGI: > 61.6 µM
786-0 renal
  GI50: 182 nM
  TGI: > 68.8 µM
SK-MEL-28 melanoma
  GI50: 4.73 µM
  TGI: > 100 µM
KM12 colon
  GI50: 101 nM
  TGI: > 36.1 µM
SN12C renal
  GI50: 139 nM
  TGI: > 42.2 µM
COLO 205 colon
  GI50: 210 nM
  TGI: 487 nM
UO-31 renal
  GI50: 486 nM
  TGI: > 100 µM
IGROV1 ovarian
  GI50: 136 nM
  TGI: 10.8 µM
PC-3 prostate
  GI50: 111 nM
  TGI: > 89.3 µM
OVCAR-3 ovarian
  GI50: 77.8 nM
  TGI: 221 nM
SF-539 CNS
  GI50: 199 nM
  TGI: 744 nM
SNB-75 CNS
  GI50: 38.3 nM
  TGI: > 41.4 µM
RXF 393 renal
  GI50: 916 nM
  TGI: > 100 µM
SF-268 CNS
  GI50: 195 nM
  TGI: > 100 µM
CCRF-CEM leukemia
  GI50: 111 nM
  TGI: > 38.5 µM
ACHN renal
  GI50: 134 nM
  TGI: > 60.8 µM
BT-549 breast
  GI50: 112 nM
  TGI: 3.41 µM
UACC-62 melanoma
  GI50: 69.8 nM
  TGI: > 100 µM
HS 578T breast
  GI50: 85.8 nM
  TGI: > 100 µM
HL-60(TB) leukemia
  GI50: 75.6 nM
  TGI: 181 nM
